In article PMC9127750, “Structure-based design of CDC42 effector interaction inhibitors for the treatment of cancer” (Cell reports, 2022):
Several values for one entry are separate records, joined by “and”; a condition that tells them apart may be missing. Equal entries are not always repeated.

Test system: WM3248 melanoma cells, 486 antibodies
Experiment: Reverse phase protein arrays (RPPA)
Assay type: cell-based, Human
From the text: Pellets were snap frozen in liquid nitrogen and shipped to MD Anderson Cancer Center core RPPA facility for RPPA analysis (Table S5). Three biological replicates for each sample were generated.
Nomenclatures on the RPPA heatmaps: name_of_antibody.species_of_antibody.status_of_antibody. V - antibody validated; C - validation of antibody in progress; Q - antibody nonspecific; E – under evaluation; antibodies raised in M - mouse, G - goat, R - rabbit, or T - rat.

[1] = Norm_20, replicates 1-3 and Average, relative to Norm_0

CN(C)c1cccc(Nc2cc(-c3ccccc3)nc(C3CCNCC3)n2)c1 [ARN22089, N1,N1-dimethyl-N3-(6-phenyl-2-(piperidin-4-yl)pyrimidin-4-yl)benzene-1,3-diamine]
Bax.R.V RPPA signal, normalized [1]: 1.116 and 1.001 and 1.099
Bcl2.R.C RPPA signal, normalized [1]: 1.192 and 1.263 and 1.147 and 1.201
Bcl.xL.R.V RPPA signal, normalized [1]: 1.010 and 1.055 and 1.349 and 1.138
Beclin.R.C RPPA signal, normalized [1]: 0.940 and 1.021 and 1.001
BiP.GRP78.M.C RPPA signal, normalized [1]: 0.957 and 0.997 and 0.968
Bid.R.C RPPA signal, normalized [1]: 1.024 and 0.874 and 0.875 and 0.925
Bim.R.V RPPA signal, normalized [1]: 1.050 and 0.910 and 0.906 and 0.955
X4E.BP1.R.V RPPA signal, normalized [1]: 0.857 and 0.934 and 2.342 and 1.377
X4E.BP1_pS65.R.V RPPA signal, normalized [1]: 0.791 and 0.833 and 1.063 and 0.895
X4E.BP1_pT37_T46.R.V RPPA signal, normalized [1]: 0.867 and 0.753 and 1.126 and 0.915
X14.3.3.zeta.R.V RPPA signal, normalized [1]: 0.941 and 0.920 and 0.970 and 0.944
X14.3.3βR.V RPPA signal, normalized [1]: 1.101 and 1.160 and 0.888 and 1.050
X14.3.3εM.C RPPA signal, normalized [1]: 0.855 and 0.892 and 1.081 and 0.943
X53BP1.R.V RPPA signal, normalized [1]: 1.138 and 0.986 and 1.047 and 1.057
b.Actin.R.C RPPA signal, normalized [1]: 1.058 and 1.299 and 1.110 and 1.155
b.Catenin.R.V RPPA signal, normalized [1]: 0.975 and 0.858 and 1.031 and 0.954
b.Catenin_pT41_S45.R.V RPPA signal, normalized [1]: 1.047 and 1.076
c.Abl.R.V RPPA signal, normalized [1]: 1.061 and 1.026 and 1.186
c.Abl_pY412.R.C RPPA signal, normalized [1]: 1.034 and 0.935 and 1.009 and 0.993
c.IAP2.R.C RPPA signal, normalized [1]: 1.049 and 1.145 and 1.104 and 1.100
C.Raf.R.C normalized signal (Norm_20 Average): 0.952
CA9.R.C normalized signal (Norm_20 Average): 0.890
CD2.M.C normalized signal (Norm_20 Average): 0.871
CD4.R.V normalized signal (Norm_20 Average): 1.005
CD5.M.C normalized signal (Norm_20 Average): 0.944
CD20.R.C normalized signal (Norm_20 Average): 1.356
CD26.R.V normalized signal (Norm_20 Average): 1.108
CD29.M.V normalized signal (Norm_20 Average): 0.892
CD31.M.V normalized signal (Norm_20 Average): 0.916
CD44.R.C normalized signal (Norm_20 Average): 1.001
CD45.M.V normalized signal (Norm_20 Average): 0.902
CD49b.M.V normalized signal (Norm_20 Average): 1.012
CD68.M.C normalized signal (Norm_20 Average): 0.968
CD74.M.V normalized signal (Norm_20 Average): 0.926
CD134.R.V normalized signal (Norm_20 Average): 0.946
CD171.M.V normalized signal (Norm_20 Average): 0.712
CDK1_pT14.R.C normalized signal (Norm_20 Average): 1.008
CDK9.R.V normalized signal (Norm_20 Average): 0.932
CDKN2A.R.C normalized signal (Norm_20 Average): 0.921
CDT1.R.V normalized signal (Norm_20 Average): 0.857
CENP.A.R.V normalized signal (Norm_20 Average): 1.525
CRABP1.R.C normalized signal (Norm_20 Average): 0.968
CRABP2.R.V normalized signal (Norm_20 Average): 0.841
CREB_pS133.R.C normalized signal (Norm_20 Average): 1.190
CSK.R.C normalized signal (Norm_20 Average): 0.923
Calnexin.R.V normalized signal (Norm_20 Average): 0.926
Caspase.3.cleaved.R.C normalized signal (Norm_20 Average): 1.013
Caspase.7.cleaved..R.C normalized signal (Norm_20 Average): 1.013
Caspase.8.M.Q normalized signal (Norm_20 Average): 0.961
Caspase.8.cleaved.R.C normalized signal (Norm_20 Average): 0.957
Caveolin.1.R.V normalized signal (Norm_20 Average): 0.866
Cdc6.R.V normalized signal (Norm_20 Average): 0.851
Cdc42.R.C normalized signal (Norm_20 Average): 0.996
Chk1.M.C normalized signal (Norm_20 Average): 0.786
Chk1_pS345.R.C normalized signal (Norm_20 Average): 1.170
Chk2.M.V normalized signal (Norm_20 Average): 0.875
Chk2_pT68.R.C normalized signal (Norm_20 Average): 1.128
Claudin.7.R.V normalized signal (Norm_20 Average): 1.226
Collagen.VI.R.V normalized signal (Norm_20 Average): 1.013
Complex.II.Subunit.M.V normalized signal (Norm_20 Average): 1.002
Coup.TFII.R.C normalized signal (Norm_20 Average): 1.005
Cox2.R.C normalized signal (Norm_20 Average): 1.349
Cox.IV.R.V normalized signal (Norm_20 Average): 0.992
Creb.R.C normalized signal (Norm_20 Average): 1.053
CtIP.R.V normalized signal (Norm_20 Average): 0.962
Cyclin.B1.R.V normalized signal (Norm_20 Average): 0.968
Cyclin.D1.R.C normalized signal (Norm_20 Average): 0.986
Cyclin.D3.M.V normalized signal (Norm_20 Average): 0.749
Cyclin.E1.R.V normalized signal (Norm_20 Average): 0.902
Cyclophilin.F.M.V normalized signal (Norm_20 Average): 0.934
D.a.Tubulin.R.V normalized signal (Norm_20 Average): 0.990
DAPK1_pS308.M.C normalized signal (Norm_20 Average): 2.076
DAPK2.R.C normalized signal (Norm_20 Average): 1.013
DDB.1.R.V normalized signal (Norm_20 Average): 0.922
DDR1.R.V normalized signal (Norm_20 Average): 0.996
DDR1_pY513.R.C normalized signal (Norm_20 Average): 1.082
DJ1.R.V normalized signal (Norm_20 Average): 0.929
DM.Histone.H3.R.V normalized signal (Norm_20 Average): 1.963
DM.K9.Histone.H3.M.V normalized signal (Norm_20 Average): 1.372
DNA.Ligase.IV.R.C normalized signal (Norm_20 Average): 0.924
DNA_POLG.R.V normalized signal (Norm_20 Average): 1.084
c.Jun_pS73.R.V normalized signal (Norm_20 Average): 0.769
c.Kit.R.V normalized signal (Norm_20 Average): 1.333
c.Met_pY1234_Y1235.R.V normalized signal (Norm_20 Average): 1.008
c.Myc.R.C normalized signal (Norm_20 Average): 0.930
cGAS.R.V normalized signal (Norm_20 Average): 0.995
cdc2_pY15.R.C normalized signal (Norm_20 Average): 0.940
cdc25C.R.V normalized signal (Norm_20 Average): 0.832
C.Raf.R.C normalized signal (Norm_20 replicates): 0.926 and 0.909 and 1.022
C.Raf_pS338.R.V normalized signal (Norm_20 replicates): 1.047 and 0.977 and 1.202
CA9.R.C normalized signal (Norm_20 replicates): 0.834 and 0.857 and 0.980
CD2.M.C normalized signal (Norm_20 replicates): 0.856 and 0.882 and 0.876
CD4.R.V normalized signal (Norm_20 replicates): 1.114 and 0.892 and 1.008
CD5.M.C normalized signal (Norm_20 replicates): 0.915 and 0.968 and 0.950
CD20.R.C normalized signal (Norm_20 replicates): 1.024 and 1.514 and 1.531
CD26.R.V normalized signal (Norm_20 replicates): 1.033 and 0.940 and 1.351
CD29.M.V normalized signal (Norm_20 replicates): 0.857 and 0.910 and 0.908
CD31.M.V normalized signal (Norm_20 replicates): 0.884 and 0.896
CD38.R.C normalized signal (Norm_20 replicates): 1.108 and 1.163
CD44.R.C normalized signal (Norm_20 replicates): 0.959 and 1.005
CD45.M.V normalized signal (Norm_20 replicates): 0.835 and 0.934
CD49b.M.V normalized signal (Norm_20 replicates): 0.952 and 1.078 and 1.005
CD68.M.C normalized signal (Norm_20 replicates): 0.919 and 0.910
CD74.M.V normalized signal (Norm_20 replicates): 0.908 and 0.967 and 0.901
CD134.R.V normalized signal (Norm_20 replicates): 0.960 and 0.966
CD171.M.V normalized signal (Norm_20 replicates): 0.652 and 0.837 and 0.648
CDK1_pT14.R.C normalized signal (Norm_20 replicates): 1.055 and 0.710 and 1.260
CDK9.R.V normalized signal (Norm_20 replicates): 0.996 and 0.856 and 0.946
CDKN2A.R.C normalized signal (Norm_20 replicates): 0.854 and 0.981 and 0.927
CDT1.R.V normalized signal (Norm_20 replicates): 0.785 and 0.945 and 0.841
CENP.A.R.V normalized signal (Norm_20 replicates): 0.821 and 2.735 and 1.018
CHD1L.R.V normalized signal (Norm_20 replicates): 0.858 and 0.933 and 1.056
CIITA.R.C normalized signal (Norm_20 replicates): 0.943 and 1.115 and 1.149
COG3.R.V normalized signal (Norm_20 replicates): 0.982 and 0.987 and 1.164
CRABP1.R.C normalized signal (Norm_20 replicates): 0.873 and 1.063
CRABP2.R.V normalized signal (Norm_20 replicates): 0.668 and 1.048 and 0.808
CREB_pS133.R.C normalized signal (Norm_20 replicates): 0.993 and 1.115 and 1.463
CSK.R.C normalized signal (Norm_20 replicates): 0.890 and 0.821 and 1.057
Calnexin.R.V normalized signal (Norm_20 replicates): 0.950 and 0.927 and 0.903
Caspase.3.cleaved.R.C normalized signal (Norm_20 replicates): 1.050 and 1.052 and 0.937
Caspase.7.cleaved..R.C normalized signal (Norm_20 replicates): 1.145 and 0.913 and 0.981
Caspase.8.M.Q normalized signal (Norm_20 replicates): 0.921 and 1.010 and 0.953
Caspase.8.cleaved.R.C normalized signal (Norm_20 replicates): 0.981 and 0.904 and 0.986
Caveolin.1.R.V normalized signal (Norm_20 replicates): 0.827 and 0.896 and 0.874
Cdc6.R.V normalized signal (Norm_20 replicates): 1.058 and 0.691 and 0.803
Cdc42.R.C normalized signal (Norm_20 replicates): 0.945 and 1.025 and 1.019
Chk1.M.C normalized signal (Norm_20 replicates): 0.656 and 0.821 and 0.882
Chk1_pS296.R.V normalized signal (Norm_20 replicates): 0.970 and 0.828 and 1.051
Chk1_pS345.R.C normalized signal (Norm_20 replicates): 1.119 and 1.167 and 1.225
Chk2.M.V normalized signal (Norm_20 replicates): 0.658 and 0.864 and 1.104
Chk2_pT68.R.C normalized signal (Norm_20 replicates): 0.997 and 1.290 and 1.096
Claudin.7.R.V normalized signal (Norm_20 replicates): 0.881 and 1.747 and 1.050
Collagen.VI.R.V normalized signal (Norm_20 replicates): 1.201 and 0.989 and 0.848
Complex.II.Subunit.M.V normalized signal (Norm_20 replicates): 0.922 and 0.878 and 1.206
Connexin.43.R.C normalized signal (Norm_20 replicates): 0.931 and 1.019
Coup.TFII.R.C normalized signal (Norm_20 replicates): 1.109 and 0.920 and 0.985
Cox2.R.C normalized signal (Norm_20 replicates): 1.356 and 1.253 and 1.438
Cox.IV.R.V normalized signal (Norm_20 replicates): 1.130 and 0.864 and 0.981
Creb.R.C normalized signal (Norm_20 replicates): 0.982 and 1.104
CtIP.R.V normalized signal (Norm_20 replicates): 0.991 and 0.925 and 0.970
Cyclin.B1.R.V normalized signal (Norm_20 replicates): 0.884 and 0.735 and 1.285
Cyclin.D1.R.C normalized signal (Norm_20 replicates): 0.990 and 1.056 and 0.913
Cyclin.D3.M.V normalized signal (Norm_20 replicates): 0.612 and 0.725 and 0.909
Cyclin.E1.R.V normalized signal (Norm_20 replicates): 0.878 and 0.955 and 0.872
Cyclophilin.F.M.V normalized signal (Norm_20 replicates): 0.906 and 0.884 and 1.010
D.a.Tubulin.R.V normalized signal (Norm_20 replicates): 1.030 and 0.992
DAPK1_pS308.M.C normalized signal (Norm_20 replicates): 1.481 and 2.154 and 2.593
DAPK2.R.C normalized signal (Norm_20 replicates): 0.964 and 1.008
DDB.1.R.V normalized signal (Norm_20 replicates): 1.193 and 0.735 and 0.837
DDR1.R.V normalized signal (Norm_20 replicates): 0.952 and 1.004 and 1.031
DDR1_pY513.R.C normalized signal (Norm_20 replicates): 1.061 and 1.271 and 0.913
DJ1.R.V normalized signal (Norm_20 replicates): 1.006 and 0.828 and 0.954
DM.Histone.H3.R.V normalized signal (Norm_20 replicates): 3.935 and 0.881
DM.K9.Histone.H3.M.V normalized signal (Norm_20 replicates): 2.137 and 0.933
DNA.Ligase.IV.R.C normalized signal (Norm_20 replicates): 0.747 and 1.076
DNA_POLG.R.V normalized signal (Norm_20 replicates): 1.105 and 1.113 and 1.034
c.Jun_pS73.R.V normalized signal (Norm_20 replicates): 0.847 and 0.671 and 0.789
c.Kit.R.V normalized signal (Norm_20 replicates): 1.304 and 1.335 and 1.361
c.Met_pY1234_Y1235.R.V normalized signal (Norm_20 replicates): 1.007 and 1.003 and 1.014
c.Myc.R.C normalized signal (Norm_20 replicates): 0.879 and 0.953 and 0.957
cGAS.R.V normalized signal (Norm_20 replicates): 0.887 and 1.171 and 0.926
cdc2_pY15.R.C normalized signal (Norm_20 replicates): 0.878 and 0.795 and 1.146
cdc25C.R.V normalized signal (Norm_20 replicates): 0.758 and 0.751 and 0.986
